According to paper PMC5988656, “Phase I studies of AZD1208, a proviral integration Moloney virus kinase inhibitor in solid and haematological cancers” (British Journal of Cancer, 2018):

What was measured:
[1] = Solid tumour dose-escalation study: pharmacokinetics (plasma, urine); format: in vivo, human; settings: for Plasma concentration of AZD1208, Gmean: Cycle 1, Day 15
Description: The schedules for collection of blood and urine samples for PK analyses in each cohort in both studies are described in Supplementary Table 1. When necessary for clinical response assessment in the AML study, a bone marrow sample for PK analysis was collected at Cycle 1, Day 28.
The concentration of AZD1208 in plasma and urine was determined by Covance, on behalf of Clinical Bioanalysis Alliance at AstraZeneca R&D, using a bioanalytical method. A volume of 0.05 ml of K2EDTA human plasma sample was extracted by liquid–liquid extraction using 0.7 ml of methyl tert-butyl ether. Approximately 100 µl of the supernatant was transferred, evaporated to dryness and reconstituted with 350 µl of 1:1 methanol:water, and a 5 µl injection was made to the high-performance liquid chromatography (HPLC) column. HPLC separations were performed on a Phenomenex LUNA C18 (50 × 2 mm, 5 µm) column using a mobile phase of 0.1% formic acid in water (A) and 0.1% formic acid in acetonitrile (B) at a flow rate of 0.6 ml/min and a column temperature of 40 °C. AZD1208-D5 was used as the internal standard. Detection was performed in a Sciex API4000 mass spectrometer, in a positive electrospray ionisation mode, using multiple reaction monitoring detection (AZD1208: 380.0–>248.1; AZD1208-D5: 385.0–>253.1).

[2] = tested on: MYC-driven prostate cancer models; set-up: method as in PMID 25505253; settings: cited from earlier work

N[C@@H]1CCCN(c2c(/C=C3\SC(=O)NC3=O)cccc2-c2ccccc2)C1 [AZD1208]
Plasma concentration of AZD1208, Gmean ([1]; 0.25 h post-dose, 360 mg): n=2 562.8 ng ml | Plasma concentration of AZD1208, Gmean ([1]; 0.25 h post-dose, 540 mg): n=3 496.8 ng ml | Plasma concentration of AZD1208, Gmean ([1]; 0.5 h post-dose, 120 mg): n=3 1109 ng ml | Plasma concentration of AZD1208, Gmean ([1]; 0.5 h post-dose, 240 mg): n=6 881.5 ng ml | Plasma concentration of AZD1208, Gmean ([1]; 0.5 h post-dose, 360 mg): n=3 884.4 ng ml | Plasma concentration of AZD1208, Gmean ([1]; 0.5 h post-dose, 540 mg): n=3 774 ng ml | Plasma concentration of AZD1208, Gmean ([1]; 0.5 h post-dose, 700 mg): n=4 1042 ng ml | Plasma concentration of AZD1208, Gmean ([1]; 0.5 h post-dose, 800 mg): n=2 1420 ng ml | Plasma concentration of AZD1208, Gmean ([1]; 1 h post-dose, 120 mg): n=3 1319 ng ml | Plasma concentration of AZD1208, Gmean ([1]; 1 h post-dose, 240 mg): n=6 1316 ng ml | Plasma concentration of AZD1208, Gmean ([1]; 1 h post-dose, 360 mg): n=3 1983 ng ml | Plasma concentration of AZD1208, Gmean ([1]; 1 h post-dose, 540 mg): n=3 1691 ng ml | Plasma concentration of AZD1208, Gmean ([1]; 1 h post-dose, 700 mg): n=4 1320 ng ml | Plasma concentration of AZD1208, Gmean ([1]; 1 h post-dose, 800 mg): n=2 1783 ng ml | Plasma concentration of AZD1208, Gmean ([1]; 1.5 h post-dose, 120 mg): n=3 1367 ng ml | Plasma concentration of AZD1208, Gmean ([1]; 1.5 h post-dose, 240 mg): n=6 1843 ng ml | Plasma concentration of AZD1208, Gmean ([1]; 1.5 h post-dose, 360 mg): n=3 3212 ng ml | Plasma concentration of AZD1208, Gmean ([1]; 1.5 h post-dose, 540 mg): n=3 3302 ng ml | Plasma concentration of AZD1208, Gmean ([1]; 2 h post-dose, 120 mg): n=3 1681 ng ml | Plasma concentration of AZD1208, Gmean ([1]; 2 h post-dose, 240 mg): n=6 2340 ng ml | Plasma concentration of AZD1208, Gmean ([1]; 2 h post-dose, 360 mg): n=3 3106 ng ml | Plasma concentration of AZD1208, Gmean ([1]; 2 h post-dose, 540 mg): n=3 3646 ng ml | Plasma concentration of AZD1208, Gmean ([1]; 2 h post-dose, 700 mg): n=4 2802 ng ml | Plasma concentration of AZD1208, Gmean ([1]; 2 h post-dose, 800 mg): n=2 1705 ng ml | Plasma concentration of AZD1208, Gmean ([1]; 4 h post-dose, 120 mg): n=3 1649 ng ml | Plasma concentration of AZD1208, Gmean ([1]; 4 h post-dose, 240 mg): n=6 1899 ng ml | Plasma concentration of AZD1208, Gmean ([1]; 4 h post-dose, 360 mg): n=3 2483 ng ml | Plasma concentration of AZD1208, Gmean ([1]; 4 h post-dose, 540 mg): n=3 2508 ng ml | Plasma concentration of AZD1208, Gmean ([1]; 4 h post-dose, 700 mg): n=4 2882 ng ml | Plasma concentration of AZD1208, Gmean ([1]; 4 h post-dose, 800 mg): n=2 2509 ng ml | Plasma concentration of AZD1208, Gmean ([1]; 6 h post-dose, 120 mg): n=3 1657 ng ml | Plasma concentration of AZD1208, Gmean ([1]; 6 h post-dose, 240 mg): n=6 1637 ng ml | Plasma concentration of AZD1208, Gmean ([1]; 6 h post-dose, 360 mg): n=2 2130 ng ml | Plasma concentration of AZD1208, Gmean ([1]; 6 h post-dose, 540 mg): n=3 2023 ng ml | Plasma concentration of AZD1208, Gmean ([1]; 6 h post-dose, 700 mg): n=4 3291 ng ml | Plasma concentration of AZD1208, Gmean ([1]; 6 h post-dose, 800 mg): n=2 3401 ng ml | Plasma concentration of AZD1208, Gmean ([1]; 8 h post-dose, 120 mg): n=3 1262 ng ml | Plasma concentration of AZD1208, Gmean ([1]; 8 h post-dose, 240 mg): n=6 1466 ng ml | Plasma concentration of AZD1208, Gmean ([1]; 8 h post-dose, 360 mg): n=3 1813 ng ml | Plasma concentration of AZD1208, Gmean ([1]; 8 h post-dose, 540 mg): n=3 1739 ng ml | Plasma concentration of AZD1208, Gmean ([1]; pre-dose, 120 mg): n=3 903.1 ng ml | Plasma concentration of AZD1208, Gmean ([1]; pre-dose, 240 mg): n=6 560.9 ng ml | Plasma concentration of AZD1208, Gmean ([1]; pre-dose, 360 mg): n=3 602.5 ng ml | Plasma concentration of AZD1208, Gmean ([1]; pre-dose, 540 mg): n=4 266.6 ng ml | Plasma concentration of AZD1208, Gmean ([1]; pre-dose, 700 mg): n=3 819 ng ml | Plasma concentration of AZD1208, Gmean ([1]; pre-dose, 800 mg): n=2 1099 ng ml | Half-life, max ([1]; following a single dose): 103 h | Half-life, min ([1]; following a single dose): 18.9 h | Mean half-life ([1]; following a single dose): 37.2 h | Median Tmax ([1]; multiple dosing): ~ 4 h | Tmax range ([1]; multiple dosing): 1.5 to 6 h | AZD1208 dose observed in urine ([1]; multiple dosing, Day 15): 0.5% | Renal clearance ([1]; single and multiple dosing): negligible | AZD1208 dose eliminated in urine ([1]; single dose, over 72 h): ~ 1% | Median Tmax ([1]; single dosing): ~ 5 h | Tmax range ([1]; single dosing): 1.5 to 25 h | Tumour growth [2]: significantly decreased tumour growth
